From patent US20230012560A1, “HEPATITIS B ANTIVIRAL AGENTS” (TAIGEN BIOTECHNOLOGY CO., LTD., priority 2019, published 2023) come the findings set out here.

The experiment concerns HBV (HepAD38 cells). Briefly: Real-Time PCR Assay (extracellular HBV DNA from HepAD38 culture supernatants). It counts as cell-based. The conditions noted are these: Hepatitis B virus, 120 h, compound treatment for 5 days without tetracycline, extracellular DNA in culture supernatant quantified by real-time PCR, read-out: EC50 (50% effective concentration). On the procedure: HepAD38 cells were seeded and cultured on 96-well plates. After incubation for 2 days, cells were fed with compound-containing media without tetracycline. After compound treatment for 5 days, culture supernatants were collected. Extracellular DNA was then extracted using LabTurbo DNA mini kit, and quantified by real-time PCR.
Real-time PCR was performed using an ABI QuantStudio 3 system in a 96-well optical plate format. The PCR mixture containing forward primer (5′-[…]-3′) (SEQ ID NO.1), reverse primer (5′-GGTGAGTGATTGGAGGTTG-3′) (SEQ ID NO.2) and Luna Universal qPCR Master Mix in a final volume of 24 μl was incubated at 95° C. for 10 min followed by 45 cycle of incubation at 95° C. for 10 s and 60° C. for 10 s. Regression analysis was performed using GraphPad Prism 5 to calculate the 50% effective concentration (EC50) values.
On the technique in general: In qPCR the cycle at which signal appears reflects the starting amount.

For `CCCn1cc(S(=O)(=O)N[C@@H]2CCN(C(=O)C(=O)NC)C2)c(F)c1C(=O)Nc1ccc(F)c(F)c1` [Compound 51], the EC50 was under 100 nM. Then `CNC(=O)C(=O)N1C[C@@H]2[C@H](C1)[C@@H]2NS(=O)(=O)c1cn(C)c(C(=O)Nc2cc(F)c(F)c(F)c2)c1F` [Compound 100], with under 100 nM; and `CNS(=O)(=O)N1CCC(C)C(NS(=O)(=O)c2cn(C)c(C(=O)Nc3ccc(F)c(F)c3)c2F)C1` (stereo not drawn) [Compound 19], with under 100 nM. The result for `CNC(=O)C(=O)N1CC[C@@H](NS(=O)(=O)c2cn(C3CCCC3)c(C(=O)Nc3ccc(F)c(F)c3)c2F)C1` [Compound 53] reads 300 to 1000 nM; that for `CCNC(=O)C(=O)N1CCN(S(=O)(=O)c2cn(C)c(C(=O)Nc3cc(F)c(F)c(F)c3)c2F)CC1` [Compound 65], 300 to 1000 nM; that for `CNC(=O)C(=O)N1CC[C@@H](NS(=O)(=O)c2cn(C)c(C(=O)Nc3ccc(F)c(C(F)F)c3)c2F)C1` [Compound 40], under 100 nM.

As for `CCS(=O)(=O)N1CCC2(NS(=O)(=O)c3cn(C)c(C(=O)Nc4ccc(F)c(F)c4)c3F)CC2C1` (stereo not drawn) [Compound 26], the EC50 is under 100 nM. With `CCn1cc(S(=O)(=O)N[C@@H]2CCN(S(=O)(=O)NC)C2)c(F)c1C(=O)Nc1ccc(F)c(F)c1` [Compound 17], the EC50 is under 100 nM. The result for `C=CCn1cc(S(=O)(=O)N[C@@H]2CCN(C(=O)C(=O)NC)C2)c(F)c1C(=O)Nc1ccc(F)c(F)c1` [Compound 52] reads under 100 nM; that for `CCn1cc(S(=O)(=O)N[C@@H]2CCCN(C(=O)C(N)=O)C2)c(F)c1C(=O)Nc1ccc(F)c(F)c1` [Compound 58], under 100 nM; that for `CCNC(=O)C(=O)N1CCC(NS(=O)(=O)c2cn(C)c(C(=O)Nc3cc(F)c(F)c(F)c3)c2Cl)CC1` [Compound 76], under 100 nM. The result for `CCNC(=O)C(=O)N1CCC(NS(=O)(=O)c2cn(/C=C/F)c(C(=O)Nc3cc(F)cc(Cl)c3)c2F)CC1` [Compound 90] reads under 100 nM. Then `CNC(=O)C(=O)N1CC[C@@H](NS(=O)(=O)c2cn(C)c(C(=O)Nc3ccc(F)c(Cl)c3)c2F)C1` [Compound 41], with under 100 nM; and `Cn1cc(S(=O)(=O)N[C@@H]2CCN(C(=O)C(=O)NCCO)C2)c(F)c1C(=O)Nc1cc(F)c(F)c(F)c1` [Compound 37], with under 100 nM; and `CCS(=O)(=O)N1CC2CC1CN2S(=O)(=O)c1cn(C)c(C(=O)Nc2ccc(F)c(F)c2)c1F` (stereo not drawn) [Compound 67], with 300 to 1000 nM. On to `CNS(=O)(=O)N1CC[C@@H](NS(=O)(=O)c2cn(C)c(C(=O)Nc3cc(F)c(F)c(F)c3)c2F)C1` [Compound 6], for which the EC50 is under 100 nM. Then `CNC(=O)C(=O)N1CC[C@@H](NS(=O)(=O)c2c(F)c(C(=O)Nc3ccc(F)c(F)c3)n(C)c2C)C1` [Compound 44], with under 100 nM; and `CNC(=O)C(=O)N1CC[C@@H](NS(=O)(=O)c2cn(CC(F)F)c(C(=O)Nc3ccc(F)c(F)c3)c2F)C1` [Compound 48], with under 100 nM; and `CCNC(=O)C(=O)N1CCC(C)(NS(=O)(=O)c2cn(C)c(C(=O)Nc3cc(F)c(F)c(F)c3)c2F)CC1` [Compound 82], with 100 to 300 nM.

With `Cn1cc(S(=O)(=O)N[C@@H]2CCN(S(=O)(=O)C3CCCC3)C2)c(F)c1C(=O)Nc1ccc(F)c(F)c1` [Compound 3], the EC50 lay within 100 to 300 nM. Then `CCNC(=O)C(=O)N1CCC(NS(=O)(=O)c2cn(C)c(C(=O)Nc3cc(F)c(F)c(F)c3)c2Cl)CC1C` (stereo not drawn) [Compound 84], with under 100 nM; and `Cn1cc(S(=O)(=O)N[C@@H]2CCN(S(=O)(=O)c3ccc(F)cc3)C2)c(F)c1C(=O)Nc1ccc(F)c(F)c1` [Compound 13], with under 100 nM; and `CNS(=O)(=O)N1CC[C@@H](NS(=O)(=O)c2c(Cl)c(C(=O)Nc3cc(F)c(F)c(F)c3)n3c2CCC3)C1` [Compound 12], with under 100 nM. Regarding `CNS(=O)(=O)N1CCC(NS(=O)(=O)c2cn(C)c(C(=O)Nc3ccc(F)c(F)c3)c2F)C(F)(F)C1` (stereo not drawn) [Compound 27], the EC50 is under 100 nM.

`O=C(NC1CC1)C(=O)N1CCC(NS(=O)(=O)c2c(F)c(C(=O)Nc3cc(F)c(F)c(F)c3)n3c2CCC3)CC1` [Compound 77]: the EC50 was under 100 nM.

For `CCNC(=O)C(=O)N1CCC(NS(=O)(=O)c2cn(C)c(C(=O)Nc3cc(F)c(F)c(F)c3)c2Cl)C2(CC2)C1` (stereo not drawn) [Compound 87], the EC50 is under 100 nM.

For `Cn1cc(S(=O)(=O)NC2CCN(C(=O)C(N)=O)CC2)c(F)c1C(=O)Nc1cc(F)c(F)c(F)c1` [Compound 68], the EC50 was under 100 nM. For the compound `CCNC(=O)C(=O)N1CCC(NS(=O)(=O)c2cn(C)c(C(=O)Nc3cc(F)c(F)c(F)c3)c2F)C(C)(C)C1` (stereo not drawn) [Compound 86], the EC50 is under 100 nM. Then `CCNC(=O)C(=O)N1CCC(NS(=O)(=O)c2cn(C)c(C(=O)Nc3cccc(C(F)(F)F)c3)c2F)CC1` [Compound 73], with under 100 nM; and `CNS(=O)(=O)N[C@@H]1CCN(S(=O)(=O)c2cn(C)c(C(=O)Nc3cc(F)c(F)c(F)c3)c2F)C1` [Compound 60], with 300 to 1000 nM. Then `CCNC(=O)C(=O)N1CC[C@@H](NS(=O)(=O)c2cn(C)c(C(=O)Nc3ccc(F)c(F)c3)c2F)[C@@H](F)C1` [Compound 96], with under 100 nM; and `CNC(=O)C(=O)N1CCC2CC2(NS(=O)(=O)c2cn(C)c(C(=O)Nc3cc(F)c(F)c(F)c3)c2F)C1` (stereo not drawn) [Compound 59], with under 100 nM.

`CCNC(=O)C(=O)N1CCC(NS(=O)(=O)c2c(F)c(C(=O)Nc3ccc(F)c(F)c3)n(C)c2C)CC1` [Compound 80]: the EC50 is under 100 nM. The result for `CCNC(=O)C(=O)N1CC[C@@H](NS(=O)(=O)c2cn(C)c(C(=O)Nc3ccc(F)c(F)c3)c2F)C(F)(F)C1` [Compound 94] reads under 100 nM.

With `CCNC(=O)C(=O)N1CCC(NS(=O)(=O)c2cn(C)c(C(=O)Nc3cc(F)c(F)c(F)c3)c2F)CC12CC2` (stereo not drawn) [Compound 88], the EC50 is under 100 nM. For the compound `CC(C)NC(=O)C(=O)N1CC[C@@H](NS(=O)(=O)c2cn(C)c(C(=O)Nc3cc(F)c(F)c(F)c3)c2F)[C@@H](C)C1` [Compound 97], the EC50 is under 100 nM. Consider `CNS(=O)(=O)N1CCC(C)(NS(=O)(=O)c2cn(C)c(C(=O)Nc3ccc(F)c(F)c3)c2F)CC1` [Compound 25], for which the EC50 is under 100 nM. The result for `CNS(=O)(=O)N1CC[C@@H](NS(=O)(=O)c2cn(C)c(C(=O)Nc3ccc(F)c(C(F)F)c3)c2F)C1` [Compound 16] reads under 100 nM; that for `CN(C)S(=O)(=O)N1CC[C@@H](NS(=O)(=O)c2cn(C)c(C(=O)Nc3ccc(F)c(F)c3)c2F)C1` [Compound 9], under 100 nM; that for `CCNC(=O)C(=O)N1CC(NS(=O)(=O)c2cn(C)c(C(=O)Nc3cc(F)c(F)c(F)c3)c2F)C1` [Compound 56], under 100 nM. Then `CN(C)C(=O)C(=O)N1CC[C@@H](NS(=O)(=O)c2cn(C)c(C(=O)Nc3cc(F)c(F)c(F)c3)c2F)C1` [Compound 30], with under 100 nM; and `CNC(=O)C(=O)N1CC[C@@H](NS(=O)(=O)c2c(F)c(C(=O)Nc3cc(F)c(F)c(F)c3)n3c2CCCC3)C1` [Compound 46], with 100 to 300 nM; and `C[C@@H](NC(=O)C(=O)N1CC[C@@H](NS(=O)(=O)c2cn(C)c(C(=O)Nc3cc(F)c(F)c(F)c3)c2F)C1)C(F)(F)F` [Compound 39], with under 100 nM. The result for `COCCNC(=O)C(=O)N1CC[C@@H](NS(=O)(=O)c2cn(C)c(C(=O)Nc3ccc(F)c(F)c3)c2F)C1` [Compound 32] reads under 100 nM; that for `CNC(=O)C(=O)N1CC[C@@H](NS(=O)(=O)c2cn(C3CC3)c(C(=O)Nc3ccc(F)c(F)c3)c2F)C1` [Compound 49], under 100 nM; that for `Cn1cc(S(=O)(=O)NC2CCN(S(=O)(=O)C3(C)CC3)CC2)c(F)c1C(=O)Nc1ccc(F)c(F)c1` [Compound 24], under 100 nM. As for `CCNC(=O)C(=O)N[C@@H]1CCN(S(=O)(=O)c2cn(C)c(C(=O)Nc3cc(F)c(F)c(F)c3)c2F)C1` [Compound 61], the EC50 lay in the range of 300 to 1000 nM.

As for `C#CCNC(=O)C(=O)N1CC[C@@H](NS(=O)(=O)c2cn(C)c(C(=O)Nc3ccc(F)c(F)c3)c2F)C1` [Compound 34], the EC50 is under 100 nM.

Turning to `CCNC(=O)C(=O)N1CC[C@@H](NS(=O)(=O)c2cn(C)c(C(=O)Nc3ccc(F)c(F)c3)c2F)C(C)(C)C1` [Compound 99], the EC50 is under 100 nM. As for `CNC(=O)C(=O)N1CC[C@@H](NS(=O)(=O)c2c(Cl)c(C(=O)Nc3cc(F)c(F)c(F)c3)n3c2CCC3)C1` [Compound 47], the EC50 was in the range of 100 to 300 nM. Then `CNC(=O)C(=O)N1CC2CC2(NS(=O)(=O)c2cn(C)c(C(=O)Nc3cc(F)c(F)c(F)c3)c2F)C1` (stereo not drawn) [Compound 55], with under 100 nM; and `CCNC(=O)C(=O)N1CCC(NS(=O)(=O)c2c(F)c(C(=O)Nc3cc(F)c(F)c(F)c3)n(C)c2Br)CC1` [Compound 81], with under 100 nM; and `CNS(=O)(=O)N1CC[C@@H](NS(=O)(=O)c2cn(C)c(C(=O)Nc3ccc(F)c(F)c3)c2F)C1` [Compound 5], with under 100 nM.

With `CC[C@@H](C)NC(=O)C(=O)N1CCC(NS(=O)(=O)c2cn(C)c(C(=O)Nc3cc(F)c(F)c(F)c3)c2F)CC1` [Compound 75], the EC50 was under 100 nM.

Take `CNS(=O)(=O)N1CCCC(C)(NS(=O)(=O)c2cn(C)c(C(=O)Nc3ccc(F)c(F)c3)c2F)C1` (stereo not drawn) [Compound 20]: the EC50 is under 100 nM.

As for `CCNC(=O)C(=O)N1CC(C)C(NS(=O)(=O)c2cn(C)c(C(=O)Nc3cc(F)c(F)c(F)c3)c2F)C1` (stereo not drawn) [Compound 54], the EC50 is under 100 nM. Then `CCNC(=O)C(=O)N1CCC(NS(=O)(=O)c2c(Cl)c(C(=O)Nc3cc(F)c(F)c(F)c3)n3c2CCC3)CC1` [Compound 78], with under 100 nM.
